Data reported in patent US20180256673A1, “METHODS FOR TREATING FUNGAL INFECTIONS” (priority 2015, published 2018).
“And” between values parts separate entries of the source, which are not always exact repeats. Identical values can stand only once. Like-named read-outs stand apart in the source and are kept apart here. Starred links: 1 amine or outer side, 2 acyl side, 3 side chain; linkers in the order of their positions; H or OH if unused. Positions of bridges follow the written chain, without caps; N, C: chain ends. Non-standard residues stand in square brackets, D forms with d. Residues, ends and D or L forms follow the SMILES beside them. *: point of attachment. Orn(4R-OH,5R-OCH2CH2NMe3+) = C[N+](C)(C)CCO[C@@H](N[*:3])[C@H](O)C[C@H](N[*:1])C(=O)[*:2]; pTerphenylCO(4''-OnC5H11) = CCCCCOc1ccc(-c2ccc(-c3ccc(C(=O)*)cc3)cc2)cc1; hTyr(3S-OH,4S-OH) = N[C@H](C(=O)O)[C@H](O)[C@@H](O)c1ccc(O)cc1; Pro(3S-OH,4S-Me) = C[C@H]1CN[C@H](C(=O)O)[C@H]1O; Hyp = O=C(O)[C@@H]1C[C@@H](O)CN1

Key:
[1] = test system: C. glabrata ATCC 90030, ATCC 2001; format: cell-based, Candida glabrata; conditions: for Freq. (replicate mutation frequency): replicate plates 1-3, listed as CMP1; for Plate concentration: SDA, minimum concentration to cleanly inhibit growth
Method: (§1) Spontaneous mutant selection. […] Three individual colonies from each strain were used to start cultures in RPMI. […] One milliliter aliquots were spread onto SDA plates containing drug with sterile glass beads. Starting viable count was enumerated by triplicate plating of serial dilutions of the starting inoculum. […] Glycerol stocks of putative mutant colonies were stored at −80° C. […] Spontaneous mutation frequencies were calculated by dividing the number of resistant colonies on a given plate by the starting inoculum plated. A subset of mutants (weighted heavily towards those selected with CMP1) were then evaluated by MIC and sequencing of FKS gene hot spot regions.

Aspergillus fumigatus = assay: Broth microdilution of invasive fungal isolates (CLSI M27-A3/M38-A2), MEC; format: cell-based; conditions: 56 isolates
C. krusei ATCC 6258 = assay: Broth microdilution MIC (CLSI), Examples 3 and 4; conditions: Pichia kudriavzevii, ATCC6258, 24 h, read-out: Broth MIC
Method: Antifungal susceptibility testing. Candida strains were cultured aerobically at 35° C. on SDA plates or in RPMI 1640 broth (pH 7.0). […] MIC assays were performed in triplicate.

[2] = test system: azole-resistant Candida albicans R357 strain; assay: microbe, parasite or virus in culture; format: cell-based; conditions: Candida albicans
C. albicans NRRL Y-477 [3] = format: cell-based, Candida albicans
Method: as §1

[4] = test system: C. albicans vaginal isolates; assay: Susceptibility testing of VVC clinical isolates at pH 7 and 4 (CLSI M27-A3); format: cell-based, Candida albicans; conditions: for Number of isolates at MIC 0.06 μg/mL / Number of isolates at MIC 0.125 μg/mL / Number of isolates at MIC 0.25 μg/mL / Number of isolates at MIC 0.5 μg/mL / Number of isolates at MIC 0.03 μg/mL / Number of isolates at MIC […] / Number of isolates at MIC 1 μg/mL: 60 VVC isolates; for MIC90 / MIC: Candida albicans
C. albicans NRRL Y-477 [5] = assay: microbe, parasite or virus in culture; format: cell-based, Candida albicans; conditions: Candida albicans

CCCCCOc1ccc(-c2ccc(-c3ccc(C(=O)N[C@H]4C[C@@H](O)[C@@H](OCC[N+](C)(C)C)NC(=O)[C@@H]5[C@@H](O)[C@@H](C)CN5C(=O)[C@H]([C@@H](C)O)NC(=O)[C@H]([C@H](O)[C@@H](O)c5ccc(O)cc5)NC(=O)[C@@H]5C[C@@H](O)CN5C(=O)[C@H]([C@@H](C)O)NC4=O)cc3)cc2)cc1 [Compound 1] ({pTerphenylCO(4''-OnC5H11)}-[Orn(4R-OH,5R-OCH2CH2NMe3+)]T[Hyp][hTyr(3S-OH,4S-OH)]T[Pro(3S-OH,4S-Me)]; lactam 1-C)
Median mutation frequency ([1]; ATCC 2001): 3.16E−08 | Freq. (replicate mutation frequency) ([1]; ATCC 2001): 3.16E−08 and 3.79E−08 and 1.17E−08 | Median mutation frequency ([1]; ATCC 90030): 1.35E−08 | Freq. (replicate mutation frequency) ([1]; ATCC 90030): 3.52E−08 and 1.26E−08 and 1.35E−08 | Plate concentration ([1]; ATCC 2001): 0.25 µg/mL | Plate concentration ([1]; ATCC 90030): 0.25 µg/mL | Cumulative % of isolates inhibited at MEC 0.015 μg/mL (Aspergillus fumigatus): (92.9) % | Cumulative % of isolates inhibited at MEC 0.03 μg/mL (Aspergillus fumigatus): (100.0) % | Cumulative % of isolates inhibited at MEC ≤0.008 μg/mL (Aspergillus fumigatus): (41.1) % | Number of isolates inhibited at MEC 0.015 μg/mL (Aspergillus fumigatus): 29 | Number of isolates inhibited at MEC 0.03 μg/mL (Aspergillus fumigatus): 4 | Number of isolates inhibited at MEC ≤0.008 μg/mL (Aspergillus fumigatus): 23 | MIC (C. krusei ATCC 6258): 0.06 µg/mL | MIC [2]: 0.125 µg/mL | Median mutation frequency (C. albicans NRRL Y-477 [3]): 5.00E−08 | Plate concentration (C. albicans NRRL Y-477 [3]; SDA, minimum concentration to cleanly inhibit growth): 0.06 µg/mL | Freq. (replicate mutation frequency) (C. albicans NRRL Y-477 [3]; replicate plates 1-3, listed as CMP1): 5.00E−08 and 2.27E−08 and 5.47E−08 | Number of isolates at MIC 0.06 μg/mL ([4]; 24 h, pH 4): 1 | Number of isolates at MIC 0.125 μg/mL ([4]; 24 h, pH 4): 33 | Number of isolates at MIC 0.25 μg/mL ([4]; 24 h, pH 4): 23 | Number of isolates at MIC 0.5 μg/mL ([4]; 24 h, pH 4): 3 | Number of isolates at MIC 0.03 μg/mL ([4]; 24 h, pH 7): 43 | Number of isolates at MIC 0.06 μg/mL ([4]; 24 h, pH 7): 10 | Number of isolates at MIC 0.125 μg/mL ([4]; 24 h, pH 7): 2 | Number of isolates at MIC […] ([4]; 24 h, pH 7): 5 | Number of isolates at MIC 0.125 μg/mL ([4]; 48 h, pH 4): 6 | Number of isolates at MIC 0.25 μg/mL ([4]; 48 h, pH 4): 16 | Number of isolates at MIC 0.5 μg/mL ([4]; 48 h, pH 4): 34 | Number of isolates at MIC 1 μg/mL ([4]; 48 h, pH 4): 4 | Number of isolates at MIC 0.03 μg/mL ([4]; 48 h, pH 7): 29 | Number of isolates at MIC 0.06 μg/mL ([4]; 48 h, pH 7): 16 | Number of isolates at MIC 0.125 μg/mL ([4]; 48 h, pH 7): 9 | Number of isolates at MIC 0.25 μg/mL ([4]; 48 h, pH 7): 1 | Number of isolates at MIC 0.5 μg/mL ([4]; 48 h, pH 7): 1 | Number of isolates at MIC 1 μg/mL ([4]; 48 h, pH 7): 2 | Number of isolates at MIC […] ([4]; 48 h, pH 7): 2 | MIC90 ([4]; 48 h, pH 4): 0.5 µg/mL | MIC ([4]; 48 h, pH 4, fluconazole-resistant isolate 1, pH 4, 48 h, read-out: MIC): 0.5 µg/mL | MIC ([4]; 48 h, pH 4, fluconazole-resistant isolate 2, pH 4): 0.125 µg/mL | MIC ([4]; 48 h, pH 4, fluconazole-resistant isolate 3, pH 4, 48 h, read-out: MIC): 0.5 µg/mL | MIC ([4]; 48 h, pH 4, fluconazole-resistant isolate 4, pH 4, 48 h, read-out: MIC): 0.25 µg/mL | MIC ([4]; 48 h, pH 4, fluconazole-resistant isolate 6, pH 4, 48 h, read-out: MIC): 0.5 µg/mL | MIC ([4]; 48 h, pH 4, fluconazole-resistant isolate 7, pH 4, 48 h, read-out: MIC): 0.5 µg/mL | MIC ([4]; 48 h, pH 4, fluconazole-resistant isolate 9, pH 4, 48 h, read-out: MIC): 1 µg/mL | MIC90 ([4]; 48 h, pH 7): 0.125 µg/mL | MIC ([4]; 48 h, pH 7, fluconazole-resistant isolate 1, pH 7, 48 h, read-out: MIC): 0.03 µg/mL | MIC ([4]; 48 h, pH 7, fluconazole-resistant isolate 2, pH 7): 0.25 µg/mL | MIC ([4]; 48 h, pH 7, fluconazole-resistant isolate 3, pH 7, 48 h, read-out: MIC): 0.03 µg/mL | MIC ([4]; 48 h, pH 7, fluconazole-resistant isolate 4, pH 7, 48 h, read-out: MIC): 0.06 µg/mL | MIC ([4]; 48 h, pH 7, fluconazole-resistant isolate 5, pH 7): 0.125 µg/mL | MIC ([4]; 48 h, pH 7, fluconazole-resistant isolate 6, pH 7, 48 h, read-out: MIC): 0.03 µg/mL | MIC ([4]; 48 h, pH 7, fluconazole-resistant isolate 7, pH 7, 48 h, read-out: MIC): 0.03 µg/mL | MIC ([4]; 48 h, pH 7, fluconazole-resistant isolate 8, pH 7): 0.125 µg/mL | MIC ([4]; 48 h, pH 7, fluconazole-resistant isolate 9, pH 7, 48 h, read-out: MIC): 1 µg/mL | MIC ([4]; 48 h, pH 7, fluconazole-resistant isolate 10, pH 7): 0.125 µg/mL | MIC90 ([4]; 60 isolates, pH 4, 24 h, read-out: MIC90): 0.25 µg/mL | MIC90 ([4]; 60 isolates, pH 7, 24 h, read-out: MIC90): 0.06 µg/mL | MIC (C. albicans NRRL Y-477 [5]; NRRLY477, 48 h, NRRL Y-477 P20-1, selecting drug ANID, Fks1 HS1 S645Y, 48 h read): 2 µg/mL | MIC (C. albicans NRRL Y-477 [5]; NRRLY477, 48 h, NRRL Y-477 P20-1, selecting drug CMP1, 48 h read): 0.25 µg/mL | MIC (C. albicans NRRL Y-477 [5]; NRRLY477, NRRL Y-477 P20-1, selecting drug CAS): 0.03 µg/mL | MIC (C. albicans NRRL Y-477 [5]; NRRLY477, read-out: MIC P20, NRRL Y-477, total population after 20 passages with the selecting drug, MIC of selecting drug): 0.25 µg/mL
